Read-outs that look alike come from different tables or passages of the source.
Test system: HCMV
Assay type: cell-based
Outline: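 Viral protein levels come from parallel reaction monitoring on a Q Exactive HF: trypsin digests of infected-cell lysates, quantified as summed transition areas, normalized to host control peptides, averaged across peptides per protein. Cells were MRC5 fibroblasts, infected at MOI 3 (HSV-1 or HCMV) after 12 h compound pretreatment, with re-dosing every 24 h.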
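Throughout, for UL32 (P08318) protein level: each peptide scaled to its average across all runs.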
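Throughout, for UL38 (P16779) protein level: each peptide scaled to its average across all runs.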
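Throughout, for UL78 (P16751) protein level: each peptide scaled to its average across all runs.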
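Throughout, for UL95 (P16801) protein level: each peptide scaled to its average across all runs.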

Nc1c(S(=O)(=O)c2ccccc2)c2nc3ccccc3nc2n1-c1ccc(F)cc1 [CAY10602]
HCMV UL122 (IE2) and UL123 (IE1) levels: decreases | levels of HCMV viral immediate early proteins: reduced | HCMV UL123 levels (24 HPI, […] CAY10602, 50 μM trans-Resveratrol): unchanged | HCMV UL26 levels (48 HPI, […] CAY10602, 50 μM trans-Resveratrol): decreased | HCMV viral protein production (by 48 HPI): global reduction | HCMV UL99 levels (by 72 HPI, […] CAY10602, 50 μM trans-Resveratrol): robustly decreased | global decrease in HCMV viral protein levels (by 120 HPI, […] CAY10602, 50 μM trans-Resveratrol): ~70% | CVC2 (P16726) protein level (timepoint 24, DE): 0.01787 | DBP (P17147) protein level (timepoint 24, DE): 0.1756 | HELI (P16736) protein level (timepoint 24, DE): 0.3389 | IR01 (P09710) protein level (timepoint 24, DE): 0.274 | NEC2 (P16791) protein level (timepoint 24, DE): 0.03969 | RIR1 (P16782) protein level (timepoint 24, DE): 0.09397 | TRM1 (P16724) protein level (timepoint 24, DE): 0.04087 | UL4 (P17146) protein level (timepoint 24, DE): 0.03736 | UL26 (P16762) protein level (timepoint 24, DE): 0.07273 | UL32 (P08318) protein level (timepoint 24, DE): 0.01952 | UL34 (P16812) protein level (timepoint 24, DE): 0.1137 | UL38 (P16779) protein level (timepoint 24, DE): 0.9755 | UL44 (P16790) protein level (timepoint 24, DE): 0.06474 | UL48 (P16785) protein level (timepoint 24, DE): 0.01175 | UL54 (P08546) protein level (timepoint 24, DE): 0.6089 | UL71 (P16823) protein level (timepoint 24, DE): 0.439 | UL78 (P16751) protein level (timepoint 24, DE): 0.9755 | UL84 (P16727) protein level (timepoint 24, DE): 0.1012 | UL95 (P16801) protein level (timepoint 24, DE): 0.07625 | UL96 (P16787) protein level (timepoint 24, DE): 0.387 | UL97 (P16788) protein level (timepoint 24, DE): 0.2812 | UL98 (P16789) protein level (timepoint 24, DE): 0.3005 | UL102 (P16827) protein level (timepoint 24, DE): 0.5343 | UL104 (P16735) protein level (timepoint 24, DE): 0.03903 | UL112/UL113 (P17151) protein level (timepoint 24, DE): 0.5236 | UL114 (P16769) protein level (timepoint 24, DE): 0.6704 | UL119/UL118 (P16739) protein level (timepoint 24, DE): 0.2198 | UL128 (P16837) protein level (timepoint 24, DE): 0.1113 | US8 (P09730) protein level (timepoint 24, DE): 1.057 | US9 (P09729) protein level (timepoint 24, DE): 0.627 | US12 (P09721) protein level (timepoint 24, DE): 1.672 | US13 (P09720) protein level (timepoint 24, DE): 0.6838 | US14 (P09719) protein level (timepoint 24, DE): 0.3957 | US18 (P69334) protein level (timepoint 24, DE): 0.5335 | US22 (P09722) protein level (timepoint 24, DE): 0.3966 | US23 (P09701) protein level (timepoint 24, DE): 0.6776 | US24 (P09700) protein level (timepoint 24, DE): 0.62 | US34 (P09709) protein level (timepoint 24, DE): 0.7981 | gB (P06473) protein level (timepoint 24, DE): 0.1137 | IRS1 (P09715) protein level (timepoint 24, IE): 0.3939 | TRS1 (P09695) protein level (timepoint 24, IE): 0.2642 | UL13 (P16755) protein level (timepoint 24, IE): 2.055 | UL36 (P16767) protein level (timepoint 24, IE): 1.41 | UL37 (P16778) protein level (timepoint 24, IE): 1.032 | UL122 (P19893) protein level (timepoint 24, IE): 0.05997 | UL123 (P13202) protein level (timepoint 24, IE): 0.9831 | CVC1 (P16799) protein level (timepoint 24, L): 0.06119 | IR11 (P16809) protein level (timepoint 24, L): 0.1044 | MCP (P16729) protein level (timepoint 24, L): 0.004968 | SCP (Q7M6N6) protein level (timepoint 24, L): 0.004248 | TRM2 (P16792) protein level (timepoint 24, L): 0.01981 | UL22A (P16845) protein level (timepoint 24, L): 0.04382 | UL25 (P16761) protein level (timepoint 24, L): 0.03889 | UL29 (P16764) protein level (timepoint 24, L): 0.8336 | UL31 (P16848) protein level (timepoint 24, L): 0.3279 | UL43 (P16781) protein level (timepoint 24, L): 0.06088 | UL52 (P16793) protein level (timepoint 24, L): 0.01567 | UL80 (P16753) protein level (timepoint 24, L): 0.0363 | UL82 (P06726) protein level (timepoint 24, L): 0.1843 | UL88 (P16731) protein level (timepoint 24, L): 0.03831 | UL94 (P16800) protein level (timepoint 24, L): 0.08626 | UL99 (P13200) protein level (timepoint 24, L): 0.0296 | UL103 (P16734) protein level (timepoint 24, L): 0.3578 | UL117 (P16770) protein level (timepoint 24, L): 0.4362 | gH (P12824) protein level (timepoint 24, L): 0.04925 | gL (P16832) protein level (timepoint 24, L): 0.03727 | gM (P16733) protein level (timepoint 24, L): 0.03485 | gN (P16795) protein level (timepoint 24, L): 0.1564 | IR12 (P16810) protein level (timepoint 24, LL): 0.06811 | TRX1 (P16783) protein level (timepoint 24, LL): 0.0077 | TRX2 (P16728) protein level (timepoint 24, LL): 0.005245 | UL24 (P16760) protein level (timepoint 24, LL): 0.1137 | UL40 (P16780) protein level (timepoint 24, LL): 0.6403 | UL47 (P16784) protein level (timepoint 24, LL): 0.008892 | UL69 (P16749) protein level (timepoint 24, LL): 0.2203 | UL70 (P17149) protein level (timepoint 24, LL): 0.1882 | UL83 (P06725) protein level (timepoint 24, LL): 0.04505 | UL132 (P69338) protein level (timepoint 24, LL): 0.1044 | US15 (P09718) protein level (timepoint 24, LL): 1.318 | CVC2 (P16726) protein level (timepoint 48, DE): 0.02711 | DBP (P17147) protein level (timepoint 48, DE): 0.3215 | HELI (P16736) protein level (timepoint 48, DE): 0.633 | IR01 (P09710) protein level (timepoint 48, DE): 0.3157 | NEC2 (P16791) protein level (timepoint 48, DE): 0.07071 | RIR1 (P16782) protein level (timepoint 48, DE): 0.1157 | TRM1 (P16724) protein level (timepoint 48, DE): 0.1031 | UL4 (P17146) protein level (timepoint 48, DE): 0.07128 | UL26 (P16762) protein level (timepoint 48, DE): 0.08021 | UL32 (P08318) protein level (timepoint 48, DE): 0.02022 | UL34 (P16812) protein level (timepoint 48, DE): 0.07906 | UL35 (P16766) protein level (timepoint 48, DE): 0.007792 | UL38 (P16779) protein level (timepoint 48, DE): 0.8139 | UL44 (P16790) protein level (timepoint 48, DE): 0.08914 | UL48 (P16785) protein level (timepoint 48, DE): 0.03443 | UL54 (P08546) protein level (timepoint 48, DE): 0.7178 | UL71 (P16823) protein level (timepoint 48, DE): 0.3459 | UL78 (P16751) protein level (timepoint 48, DE): 0.7134 | UL84 (P16727) protein level (timepoint 48, DE): 0.07575 | UL95 (P16801) protein level (timepoint 48, DE): 0.1437 | UL96 (P16787) protein level (timepoint 48, DE): 0.2583 | UL97 (P16788) protein level (timepoint 48, DE): 0.1726 | UL98 (P16789) protein level (timepoint 48, DE): 0.3796
